EP0714896A1, “INDOL DERIVATIVES USEFUL FOR THE TREATMENT OF MIGRAINE, COMPOSITION AND UTILIZATION” (VITA-INVEST, S.A., priority 1994, dated 1995)

What follows are compounds tested on isolated rabbit saphenous vein (assay: 5HT1-like agonist activity on the isolated rabbit saphenous vein preparation (contraction)). Details: Oryctolagus cuniculus; pD2 = -log EC50 of contraction; after phenoxybenzamine 0.3 µM and pargyline 500 µM; 37°C.
Type: cell-based
Method: 5HT1-like agonist activity of the synthesis products on the isolated rabbit saphenous vein preparation.
This study was conducted using the method described by Van Heuven-Nolsen (Van Heuven-Nolsen et al., Eur. J. Pharmacol. 191 (3); 375-382; 1990) and male New Zealand rabbits were used. The animals were sacrificed by exposure to excess CO₂. Thereafter the saphenous vein of each rear extremity was excised. 5 mm long segments were obtained from each vein. Each segment was placed, using appropriate supports, in an organ bath containing a Krebs-Henseleit solution aerated with carbogen and thermostatically controlled to 37°C. These conditions were held for 25 minutes, after which the preparation was subjected to a traction of 2 g at the same time as phenoxybenzamine (0.3 µM) and pargyline (500 µM) were added to the organ bath over 30 minutes. The phenoxybenzamine is an irreversible antagonist of the α-adrenoreceptors, whilst pargyline is a selective monoaminooxidase (MAO) inhibitor. At the end of these 30 minutes, successive washings were performed with Krebs solution every 7 minutes, for a further 30 minutes to remove the excess phenoxybenzamine. Thereafter, the preparation was subjected to an increasing contraction by the addition of cumulative doses of sumatriptan (10⁻⁹ at 3x10⁻⁵ M), followed by washing and allowing to rest for 30 minutes until the segment returns to its basal tension. At the end of this time, a further cumulative curve is plotted with the product to be studied. The pD2 (-log EC₅₀, the product concentration producing 50% of its maximum contraction) and the Emax (maximum contraction achieved) were calculated.

| EC50 [nM] | Compound |
| --- | --- |
| 7.24 | CNS(=O)(=O)Cc1ccc2[nH]cc(CCCN3CCN(c4ncnc(OC)c4OC)CC3)c2c1 [Example 51, C-(3-{3-[4-(5,6-dimethoxy-pyrimidin-4-yl)-piperazin-1-yl]-propyl}-1H-indol-5-yl)-N-methyl-methanesulfonamide] |
| 457 | CNS(=O)(=O)Cc1ccc2[nH]cc(CCCNC3CCN(c4ncnc(OC)c4OC)C3)c2c1 (stereo not shown) [Example 56, C-(3-{3-[1-(5,6-dimethoxy-pyrimidin-4-yl)-pyrrolidin-3-ylamino]-propyl}-1H-indol-5-yl)-N-methyl-methanesulfonamide] |
| 120 | CNS(=O)(=O)Cc1ccc2[nH]cc(CCCN(C)CCN(C)c3ncnc(OC)c3OC)c2c1 [Example 62, C-{3-[3-({2-[(5,6-dimethoxy-pyrimidin-4-yl)-methyl-amino]-ethyl}-methyl-amino)-propyl]-1H-indol-5-yl}-N-methyl-methanesulfonamide] |
| 105 | CNc1ncnc(N2CCN(CCCc3c[nH]c4ccc(CS(=O)(=O)NC)cc34)CC2)c1OC [Example 64, C-(3-{3-[4-(6-methylamino-5-methoxy-pyrimidin-4-yl)-piperazin-1-yl]-propyl}-1H-indol-5-yl)-N-methyl-methanesulfonamide] |
| 324 | COc1cnc(C)nc1N1CCN(CCCc2c[nH]c3ccc(F)cc23)CC1 [Example 70, 5-fluoro-3-{3-[4-(2-methyl-5-methoxy-pyrimidin-4-yl)-piperazin-1-yl]-propyl}-1H-indole] |
| 1.38 | COc1ccc2[nH]cc(CCCN3CCN(c4ncnc(OC)c4OC)CC3)c2c1 [Example 80, 3-{3-[4-(5,6-dimethoxy-pyrimidin-4-yl)-piperazin-1-yl]-propyl}-5-methoxy-1H-indole] |
| 724 | COc1cncnc1N1CCN(CC=Cc2c[nH]c3ccc(F)cc23)CC1 [Example 83, 5-fluoro-3-{3-[4-(5-methoxy-pyrimidin-4-yl)-piperazin-1-yl]-propenyl}-1H-indole] |
| 282 | CNS(=O)(=O)Cc1ccc2[nH]cc(CCCN3CCN(c4ncncc4-c4ccccc4)CC3)c2c1 [Example 87, C-(3-{3-[4-(5-phenyl-pyrimidin-4-yl)-piperazin-1-yl]-propyl}-1H-indol-5-yl)-N-methylmethanesulfonamide] |
| 49 | NCCc1c[nH]c2ccc(O)cc12 [SEROTONIN, reference compound] |
| 347 | CNS(=O)(=O)Cc1ccc2[nH]cc(CCN(C)C)c2c1 [SUMATRIPTAN, sumatriptan, reference compound] |

| Compound | EC50 [nM] |
| --- | --- |
| CNS(=O)(=O)Cc1ccc2[nH]cc(CCN3CCN(c4ncncc4OC)CC3)c2c1 [Example 85, C-(3-{2-[4-(5-methoxy-pyrimidin-4-yl)-piperazin-1-yl]-ethyl}-1H-indol-5-yl)-N-methyl-methanesulfonamide] | 2630 |

Same assay, conditions: pD2 = -log EC50 of contraction; after phenoxybenzamine 0.3 µM and pargyline 500 µM; 37°C

| Compound | RABBIT SAPHENOUS VEIN pD2 |
| --- | --- |
| CNS(=O)(=O)Cc1ccc2[nH]cc(CCCNCCN(C)c3ncncc3OC)c2c1 [Example 59, C-[3-(3-{2-[5-methoxy-pyrimidin-4-yl)-methylaminolethylamino}-propyl)-1H-indol-5-yl]-N-methyl-methanesulfonamide.] | 6.64±0.24 |
| C-(3-{3-[3-(5,6-dimethoxy-pyrimidin-4-yl)-piperazin-1-yl]-1-methyl-1H-indol-5-yl)-N-methyl-methanesulfonamide [Example 78] | 6.80±0.56 |
